Results published in patent publication US8961624B2, “Ortho-phenylphenol compounds as markers for liquid hydrocarbons and other fuels and oils” (Dow Global Technologies LLC, priority 2011, dated 2015).

How the values were obtained:
[1] = Solubility in organic solvents at −10° C.; format: physicochemical; details: for soluble at (concentration) in tetralin / soluble at (concentration) in NMP / soluble at (concentration) in dipropylene glycol dimethyl ether / soluble at (concentration) in DMAc: −10° C.; for soluble at (concentration) in AROMATIC 200: AROMATIC 200, −10° C.
[2] = Solubility of Ex. 13 Product (cold storage of 10% w/w solution in AROMATIC 200); format: physicochemical; details: 10% w/w solution in AROMATIC 200, −11° C. freezer for 2 weeks
Method: Solubility of Ex. 13 Product: A solution (10% w/w) in AROMATIC 200 was prepared at room temperature. The clear solution was placed in a −11° C. freezer for 2 weeks.

Row | melting point [°C] | soluble at (concentration) in tetralin [1] [%] | soluble at (concentration) in NMP [1] [%] | soluble at (concentration) in AROMATIC 200 [1] [%] | soluble at (concentration) in dipropylene glycol dimethyl ether [1] [%] | soluble at (concentration) in DMAc [1] [%] | Compound | crystallization from solution on cold storage [2]
1 | 42 to 45 | < 5 |  |  |  |  | CCCCCCCCCCCCCCCCCCOc1ccccc1-c1ccccc1 [2-(octadecyloxy)-1,1′-biphenyl] | 
2 | 149 to 151 |  | 10 |  |  |  | c1ccc(-c2ccccc2OCc2ccc(-c3ccc(COc4ccccc4-c4ccccc4)cc3)cc2)cc1 [4,4′-bis(([1,1′-biphenyl]-2-yloxy)methyl)-1,1′-biphenyl] | 
3 | 140 to 142 |  | 10 |  |  |  | c1ccc(-c2ccccc2OCc2ccc(COc3ccccc3-c3ccccc3)cc2)cc1 [1,4-bis(([1,1′-biphenyl]-2-yloxy)-methyl)benzene] | 
4 |  |  |  |  |  |  | O=C(Oc1ccccc1-c1ccccc1)c1ccccc1 [Ex. 13 Product, [1,1′-biphenyl]-2-yl benzoate] | No visibly detectable crystallization occurred
5 | 27 to 29 | 10 |  | 10 | 10 |  | CCCCCCCCCCCCOc1ccccc1-c1ccccc1 [2-(dodecyloxy)-1,1′-biphenyl] | 
6 |  | 10 | 10 | 10 | 10 | 10 | c1ccc(-c2ccccc2OCc2ccccc2COc2ccccc2-c2ccccc2)cc1 [1,2-bis(([1,1′-biphenyl]-2-yloxy)-methyl)benzene] | 
7 |  | 7.5 |  |  |  |  | CCCCCCCCCCCCCCOc1ccccc1-c1ccccc1 [2-(tetradecyloxy)-1,1′-biphenyl] | 
8 | 62 to 67 |  | 10 |  | 10 | 10 | c1ccc(-c2ccccc2OCCCCOc2ccccc2-c2ccccc2)cc1 [1,4-bis([1,1′-biphenyl]-2-yloxy)butane] | 
